Laboratory results: patent publication US20030077645A1, “Superfamily receptor chimeras, translocation assay for superfamily receptor ligands, and methods and kits for detecting and characterizing receptor ligands” (priority 2001, published 2003)

How the values were obtained:
[1] = test system: GR-RAR chimera; conditions: 100 nM ATRA, 6 hours
Method: (§3) The 1471.1 cell line was used for this transfection study. Cells were maintained in DMEM with 10% characterized fetal calf serum, L-glutamine, and antibiotics. For transient transfections, 2×10^5 cells were resuspended in cold DMEM without serum with the indicated plasmids and incubated on ice for 1 minute. Electroporations were done in an electroporator at 140 V, 3 pulses and 10 msec pulse length followed by a 10 minute recovery on ice. Cells were then plated and allowed to recover overnight in complete media.
(§4) Assay of Receptor Activity. Cells were electroporated with 5 ug pLTRLuc, containing the MMTV LTR, and 0.7 ug pCMV-betaGal with or without 10 ug of the indicated receptor expression vector as described above. Cells were plated in duplicate in 100 mm dishes in DMEM containing 10% charcoal/dextran-treated FCS, as described above, and allowed to recover overnight. The next day, cells were treated with the indicated ligand for 6 hours.
(§5) Transfected cells were treated with the indicated ligand for 6 hours. Fold inductions are shown in the bottom table, and were calculated from the luciferase activity, normalized to beta-galactosidase activity, of ligand induced samples compared to untreated controls.

[2] = test system: GFP-GR-RAR; conditions: 100 nM ligand, 1 hour, mouse mammary adenocarcinoma cells
Method: (§1) Fluorescence Microscopy. For fluorescence microscopy, cells were electroporated with 2 ug GFP-GR-RAR, GFP-GR, or GFP-RAR. […] GFP was excited with a 488 nm laser lines supplied from a air cooled argon laser. GFP emission was monitored between 505 and 590 nm with a pinhole setting of 1.0.
(§2) FIG. 3 is a series of photographs which depict subcellular trafficking of chimeric receptor. Mouse mammary adenocarcinoma cells were transfected with GFP-GR-RAR (panels A, B, C), GFP-GR (panels D, E, F), or GFP-RAR (panels G, H, I).

[3] = molecular target: T1, GFP-RAR (wild type RAR) (Homo sapiens, UniProt P10276); conditions: 100 nM ligand, 1 hour, mouse mammary adenocarcinoma cells
T1 sequence (P10276 1-462): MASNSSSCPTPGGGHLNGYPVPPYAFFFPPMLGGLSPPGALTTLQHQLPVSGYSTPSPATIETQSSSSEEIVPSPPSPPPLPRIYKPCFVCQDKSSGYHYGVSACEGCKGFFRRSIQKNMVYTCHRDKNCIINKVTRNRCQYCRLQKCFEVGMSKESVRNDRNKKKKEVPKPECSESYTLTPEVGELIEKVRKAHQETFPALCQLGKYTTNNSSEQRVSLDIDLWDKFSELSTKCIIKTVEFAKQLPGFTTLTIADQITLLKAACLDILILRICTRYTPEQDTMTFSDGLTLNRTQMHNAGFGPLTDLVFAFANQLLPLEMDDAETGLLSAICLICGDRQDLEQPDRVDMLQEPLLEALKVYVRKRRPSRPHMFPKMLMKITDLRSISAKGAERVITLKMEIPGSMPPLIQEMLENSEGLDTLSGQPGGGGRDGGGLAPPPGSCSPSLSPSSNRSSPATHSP
Method: as §1, §2

[4] = molecular target: T2, Endogenous GR (Mus musculus, UniProt P06537); test: cell-based; conditions: read-out: Fold induction (luciferase activity normalized to beta-galactosidase activity, vs untreated control)
T2 sequence (P06537 1-792): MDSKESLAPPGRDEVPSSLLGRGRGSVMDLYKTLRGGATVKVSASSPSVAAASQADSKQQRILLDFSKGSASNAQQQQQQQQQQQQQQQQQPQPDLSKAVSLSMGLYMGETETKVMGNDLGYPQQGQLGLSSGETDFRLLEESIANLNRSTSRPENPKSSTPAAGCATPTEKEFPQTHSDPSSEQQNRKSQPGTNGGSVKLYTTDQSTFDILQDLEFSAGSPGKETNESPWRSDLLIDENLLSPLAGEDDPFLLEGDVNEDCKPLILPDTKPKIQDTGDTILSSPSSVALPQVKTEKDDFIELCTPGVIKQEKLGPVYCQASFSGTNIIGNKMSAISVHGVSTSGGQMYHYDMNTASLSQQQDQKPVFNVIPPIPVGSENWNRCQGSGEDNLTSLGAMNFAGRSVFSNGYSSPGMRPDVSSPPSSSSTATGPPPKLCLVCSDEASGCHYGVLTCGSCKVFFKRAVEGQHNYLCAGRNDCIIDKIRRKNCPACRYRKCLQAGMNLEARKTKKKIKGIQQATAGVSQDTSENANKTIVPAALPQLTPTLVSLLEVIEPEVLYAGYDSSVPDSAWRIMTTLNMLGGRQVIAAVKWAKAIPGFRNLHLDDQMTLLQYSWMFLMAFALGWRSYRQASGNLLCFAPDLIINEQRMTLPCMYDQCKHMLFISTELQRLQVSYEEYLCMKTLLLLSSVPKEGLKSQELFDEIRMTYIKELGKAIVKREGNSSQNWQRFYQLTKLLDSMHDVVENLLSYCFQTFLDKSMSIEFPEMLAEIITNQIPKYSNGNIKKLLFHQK
Method: as §3, §4, §5

SMILES: CC1=C(/C=C/C(C)=C/C=C/C(C)=C/C(=O)O)C(C)(C)CCC1 [ATRA, all-trans retinoic acid]
- Fold induction (luciferase activity normalized to beta-galactosidase activity, vs untreated control) [1]: 18.6
- Subcellular distribution of GR-RAR in response to ligand [2]: translocated to the nucleus
- Subcellular distribution of wild type RAR in response to ligand [3]: always nuclear
- fold induction at 0.1 µM [4]: 1.27
